US5679645A, “Sialic acid powder and process for the preparation thereof” (Snow Brand Milk Products Co., Ltd., priority 1993, dated 1997)

Key:
[1] = Water content of sialic acid powders (Table 1, comparison of properties); assay type: physicochemical; conditions: for Water content: Table 1
[2] = Time for complete dissolution in methanol suspension with Dowex 50; assay type: physicochemical
Method: A suspension of 10 g of Dowex 50 (trademark, manufactured by Dow Chemical; H+-type, 100-200 mesh, washed with hot methanol) in 100 ml of methanol was prepared. 10 g of Amorphous Powder 1--1, Needles 1--1, or Prisms 1--1 prepared in Example 1 was each charged to the suspension at 25° C. while vigorously stirring. While continuing the stirring at 25° C., the mixture was sampled from time to time to measure the time required for the sialic acids to be dissolved completely to form a clear solution, the degree of reaction, and the final reaction yield. The reaction yield was calculated by HPLC (HPX-87H column, trademark, manufactured by Bio Rad Co.).

[3] = Solubility in water and organic solvents (statement)
[4] = Relationship between freezing rate and properties of the freeze-dried powder (degree of crystallization, water content; Table 2); assay type: physicochemical; conditions: 40% by weight aqueous solution
Method: Relationship between the freezing rate of a sialic acid aqueous solution and properties of the ultimate product was studied. 40% by weight aqueous solution of sialic acids was used and frozen for different periods of time using liquid nitrogen, a cooling shelf, and a freezer, and freeze-dried for 4 days. The degree of crystallization and the water content were measured.

[5] = 10 g in 100 ml methanol with 10 g Dowex 50 (H+), 25° C., stirring
[6] = time for freezing 1 minute or shorter
[7] = time for freezing 5 minute or shorter
[8] = time for freezing 10 minute or shorter
[9] = time for freezing 30 minute or shorter
[10] = time for freezing 1 hour or shorter
[11] = time for freezing 3 hours or shorter

## CC(=O)N[C@H]1[C@H]([C@H](O)[C@H](O)CO)OC(O)(C(=O)O)C[C@@H]1O (some centres unmarked) [Amorphous Powder 1-1, sialic acid]
[1]
  Water content: 2.2%
[2]; [5]
  Time required for complete dissolution: 6 min
  Time required for complete dissolution (in words): dissolved fastest

## CC(=O)N[C@H]1[C@H]([C@H](O)[C@H](O)CO)OC(O)(C(=O)O)C[C@@H]1O (some centres unmarked) [Prisms 1-1, sialic acid]
[1]
  Water content: 10.9%
[1]; stated in discussion of Table 3
  Crystal water contained in the powder: about 10%
[2]; methanol with Dowex 50, 25° C., 5 hours
  Complete dissolution after 5 hours (in words): did not completely dissolved

## CC(=O)N[C@H]1[C@H]([C@H](O)[C@H](O)CO)OC(O)(C(=O)O)C[C@@H]1O (some centres unmarked) [sialic acid]
[3]; compared with needles
  Solubility in organic solvents and reactivity (in words): superiority to such sialic acid needles, in terms of solubility in organic solvents and the reactivity
[3]; compared with needles and prisms
  Solubility in water (in words): more excellent in its solubility in water than both the needles and the prisms
[1]; compared with needles
  Water content (in words): very close to those of needles

## CC(=O)N[C@H]1[C@H]([C@H](O)[C@H](O)CO)OC(O)(C(=O)O)C[C@@H]1O (some centres unmarked) [freeze-dried powder, sialic acid]
[4]; [6]
  Crystallization degree: 0%
  Water content: 1.1-1.7%
[4]; [7]
  Crystallization degree: > 0.1%
  Water content: 1.2-1.9%
[4]; [8]
  Crystallization degree: 0.2-0.4%
  Water content: 1.4-2.1%
[4]; [9]
  Crystallization degree: 1.8-2.3%
  Water content: 2.4-3.6%
[4]; [10]
  Crystallization degree: 9.8-15.1%
  Water content: 3.9-4.8%
[4]; [11]
  Crystallization degree: 26-35%
  Water content: 5.1-6.2%

## CC(=O)N[C@H]1[C@H]([C@H](O)[C@H](O)CO)OC(O)(C(=O)O)C[C@@H]1O (some centres unmarked) [Needles 1-1, sialic acid]
[1]
  Water content: 2.1%
[2]; [5]
  Time required for complete dissolution: 27 min
